Assay results as given in ChEMBL document CHEMBL3272169, “10-Hydroxy-4-methyl-2,3,4,5,6,7-hexahydro-1,6-methano-1H-4-benzazonine derivatives (homobenzomorphans) as analgesics” (J Med Chem, 1976).
Structures can show the parent of a compound that is named as a salt.

Tests used:
[1] = Acute toxicity in iv dosed albino dd mouse; type: organism-based; conditions: in vivo
Mus musculus = test: Analgesic Activity in sc dosed albino dd mouse by tail pressure stimuli method; type: functional

Row | SMILES | LD50 [1] [µmol/kg] | ED50 (Mus musculus) [µmol/kg]
1 | CC(O)C(=O)O.CN1CCC2CC(Cc3ccccc32)C1 (stereo unspecified) | 106 | 53.1
2 | Br.CN1CC[C@@H]2CC(Cc3ccc(O)cc32)C1 | 121 | 10.7
3 | CC(O)C(=O)O.C[C@H]1C2Cc3ccc(O)cc3[C@@H]1CCN(C)C2 | 184 | 9.9
4 | CC(O)C(=O)O.C[C@@H]1C2Cc3ccc(O)cc3[C@@H]1CCN(C)C2 | 153 | 8
5 | CC(O)C(=O)O.CN1CC[C@]2(C)CC(Cc3ccc(O)cc32)C1 | 67 | 7
6 | CC(O)C(=O)O.C[C@H]1C2Cc3ccc(O)cc3[C@]1(C)CCN(C)C2 | 126 | 5.2
7 | Br.C[C@@H]1C2Cc3ccc(O)cc3[C@]1(C)CCN(C)C2 | 113 | 4.1
8 | COc1ccc2c3c1O[C@H]1[C@@H](O)C=C[C@H]4[C@@H](C2)N(C)CC[C@@]341 [CODEINE PHOSPHATE] | – | 30.7
9 | CN1CC[C@]23c4c5ccc(O)c4O[C@H]2[C@@H](O)C=C[C@H]3[C@H]1C5 [MORPHINE HYDROCHLORIDE] | – | 4.4
